US6281356A, “Substituted pyrroles” (Hoffmann-La Roche Inc., priority 2000, dated 2001)
Where a name gives a salt, the structure may show the parent alone.

System: epithelial breast carcinoma cell line (MDAMB-435)
Experiment: Antiproliferative activity (growth inhibition, MTT), epithelial breast carcinoma cell line MDAMB-435
Assay type: cell-based
Details: Homo sapiens, MDA-MB-435, 120 h, 5 days post drug addition, 0.1% DMSO, read-out: IC50 (growth inhibition of MDAMB-435 cells)
Protocol: The epithelial breast carcinoma cell line (MDAMB-435) was purchased from ATCC (American Type Cell Culture Collection) and was grown in culture medium as recommended by ATCC. For analysis of the effect of various compounds of formula I on the growth of these cells, the cells were plated at a concentration of 1500 cells/well in a 96 well tissue culture plate ("test plate"). The day after the cells were plated, the compounds to be analyzed were dissolved in 100% DMSO (dimethyl sulfoxide) to yield at 10 mM stock solution. Each compound was diluted in H2 O to 1 mM and was added to triplicate wells in the first row of a 96 well master plate containing medium to yield a final concentration of 40 μM. The compounds were then serially diluted in medium in the "master plate". The diluted compound(s) were then transferred to test plates containing cells. A row of vehicle "control cells" received DMSO. The final concentration of DMSO in each well was 0.1%. 5 days post drug addition, the plate was analyzed as described below.
MTT (3-(4-5 methyl thiazole-2-yl)-2,5-diphenyl tetrazolium bromide; thiazolyl blue) was added to each well to yield a final concentration of 1 mg/ml. The plate was then incubated at 37° C. for 21/2-3 hours. The MTT-containing medium was then removed and 50 μl of 100% ethanol was added to each well to dissolve the formazan. The absorbences were then read using an automated plate reader (Bio-tek microplate reader). IC50 s were calculated using the Reed and Munsch equation, see Am. J. Hygiene Vol. 27 pgs. 493-497,1938.

SMILES | IC50
Cn1cncc1-c1ccc2c(C3=C(c4cn(C)c5cc([N+](=O)[O-])ccc45)C(=O)NC3=O)cn(C)c2c1 [Example 1, 3-[1-Methyl-6-(3-methyl-3H-imidazol-4-yl)-1H-indol-3-yl]-4-(1-methyl-6-nitro-1H-indol-3-yl)-pyrrole-2,5-dione] | 5 nM
Cn1cncc1-c1ccc2c(C3=C(c4cn(C)c5ccccc45)C(=O)NC3=O)cn(C)c2c1 [Example 2a, 3-(1-Methyl-1H-indol-3-yl)-4-[1-methyl-6-(3-methyl-3H-imidazol-4-yl)-1H-indol-3-yl]pyrrole-2,5-dione] | 50 nM
COc1ccc2c(C3=C(c4cn(C)c5cc(-c6cncn6C)ccc45)C(=O)NC3=O)cn(C)c2c1 [Example 2b, 3-(6-Methoxy-1-methyl-1H-indol-3-yl)-4-[1-methyl-6-(3-methyl-3H-imidazol-4-yl)-1H-indol-3-yl]pyrrole-2,5-dione] | 60 nM
Cn1ccnc1-c1ccc2c(C3=C(c4cn(C)c5cc([N+](=O)[O-])ccc45)C(=O)NC3=O)cn(C)c2c1 [Example 2c, 3-[1-Methyl-6-(1-methyl-1H-imidazol-2-yl)-1H-indol-3-yl]-4-(1-methyl-6-nitro-1H-indol-3-yl)pyrrole-2,5-dione] | 30 nM
CCn1ccnc1-c1ccc2c(C3=C(c4cn(C)c5cc([N+](=O)[O-])ccc45)C(=O)NC3=O)cn(C)c2c1 [Example 2d] | 120 nM
Cn1cc(C2=C(c3cn(C)c4cc(-c5ncc[nH]5)ccc34)C(=O)NC2=O)c2ccccc21 [Example 2e, 3-[6-(1H-Imidazol-2-yl)-1-methyl-1H-indol-3-yl]-4-(1-methyl-1H-indol-3-yl)pyrrole-2,5-dione] | 80 nM
Cn1cc(C2=C(c3cn(C)c4cc([N+](=O)[O-])ccc34)C(=O)NC2=O)c2ccc(-c3cnc[nH]3)cc21 [Example 2f, 3-[6-(3H-Imidazol-4-yl)-1-methyl-1H-indol-3-yl]-4-(1-methyl-6-nitro-3-yl)pyrrole-2,5-dione hydrochloride] | 20 nM
Cn1cc(C2=C(c3cn(C)c4cc(-c5ccco5)ccc34)C(=O)NC2=O)c2ccccc21 [Example 2g, 3-(6-Furan-2-yl-1-methyl-1H-indol-3-yl)-4-(1-methyl-1H-indol-3-yl)pyrrole-2,5-dione] | 20 nM
Cn1cc(C2=C(c3cn(C)c4cc([N+](=O)[O-])ccc34)C(=O)NC2=O)c2ccc(-c3ccco3)cc21 [Example 2h, 3-(6-Furan-2-yl-1-methyl-1H-indol-3-yl)-4-(1-methyl-6-nitro-1H-indol-3-yl)pyrrole-2,5-dione] | 10 nM
Cn1cc(C2=C(c3c[nH]c4ccccc34)C(=O)NC2=O)c2ccc(-c3ccco3)cc21 [Example 2i, 3-(6-Furan-2-yl-1-methyl-1H-indol-3-yl)-4-(1H-indol-3-yl)pyrrole-2,5-dione] | 30 nM
Cn1nccc1-c1ccc2c(C3=C(c4cn(C)c5cc([N+](=O)[O-])ccc45)C(=O)NC3=O)cn(C)c2c1 [Example 2j, 3-[1-Methyl-6-(2-methyl-2H-pyrazol-3-yl)-1H-indol-3-yl]-4-(1-methyl-6-nitro-1H-indol-3-yl)pyrrole-2,5-dione] | 20 nM
Cn1nccc1-c1ccc2c(C3=C(c4cn(C)c5ccccc45)C(=O)NC3=O)cn(C)c2c1 [Example 2k, 3-(1-Methyl-1H-indol-3-yl)-4-[1-methyl-6-(2-methyl-2H-pyrazol-3-yl)-1H-indol-3-yl]pyrrole-2,5-dione] | 250 nM
Cn1nccc1-c1ccc2c(C3=C(c4cn(C)c5cc(Br)ccc45)C(=O)NC3=O)cn(C)c2c1 [Example 2l, 3-(6-Bromo-1-methyl-1H-indol-3-yl)-4-[1-methyl-6-(2-methyl-2H-pyrazol-3yl)-1H-indol-3-yl]pyrrole-2,5-dione] | 70 nM
Cn1cc(C2=C(c3cn(C)c4cc([N+](=O)[O-])ccc34)C(=O)NC2=O)c2ccc(-c3ccns3)cc21 [Example 2m, 3-(6-Isothiazol-5-yl-1-methyl-1H-indol-3-yl)-4-(1-methyl-6-nitro-1H-indol-3-yl)pyrrole-2,5-dione] | 10 nM
Cn1cc(C2=C(c3cn(C)c4cc(-c5ccns5)ccc34)C(=O)NC2=O)c2ccccc21 [Example 2n, 3-(6-Isothiazol-5-yl-1-methyl-1H-indol-3-yl)-4-(1-methyl-1H-indol-3-yl)-pyrrole-2,5-dione] | 40 nM
Cn1cc(C2=C(c3cn(C)c4cc([N+](=O)[O-])ccc34)C(=O)NC2=O)c2ccc(-c3ncc[nH]3)cc21 [Example 2o, 3-[6-(1H-Imidazol-2-yl)-1-methyl-1H-indol-3-yl]-4-(1-methyl-6-nitro-1H-indol-3-yl)-pyrrole-2,5-dione] | 40 nM
Cn1cc(C2=C(c3cn(C)c4cc(-c5cccs5)ccc34)C(=O)NC2=O)c2ccccc21 [Example 3, 3-(1-Methyl-1H-indol-3-yl)-4-(1-methyl-6-thiophen-2-yl-1H-indol-3-yl)pyrrole-2,5 dione] | 40 nM
Cn1cc(C2=C(c3cn(C)c4cc(-c5ccsc5)ccc34)C(=O)NC2=O)c2ccccc21 [Example 5, 3-(1-Methyl-1H-indol-3-yl)-4-(1-methyl-6-thiophen-3-yl-1H-indol-3-yl)pyrrole-2,5-dione] | 40 nM
Cn1cc(C2=C(c3cn(C)c4cc([N+](=O)[O-])ccc34)C(=O)NC2=O)c2ccc(-c3ccsc3)cc21 [Example 6, 3-(1-methyl-6-nitro-1H-indol-3-yl)-4-(1-methyl-6-thiophen-3-yl-1H-indol-3-yl)pyrrole-2,5-dione] | 40 nM
Cn1cc(C2=C(c3cn(C)c4cc(-n5ccnc5)ccc34)C(=O)NC2=O)c2ccccc21 [Example 7, 3-(6-imidazol-1-yl-1-methyl-1H-indol-3-yl)-4-(1-methyl-1H-indol-3-yl)-pyrrole-2,5-dione] | 60 nM
COc1ccc2c(C3=C(c4cn(C)c5cc(-n6ccnc6)ccc45)C(=O)NC3=O)cn(C)c2c1 [Example 9, 3-(6-Imidazol-1-yl-1-methyl-1H-indol-3-yl)-4-(6-methoxy-1-methyl-1H-indol-3-yl)-pyrrole-2,5-dione] | 60 nM

Next, values leading:

IC50 | SMILES
24 nM | Cn1cc(C2=C(c3cn(C)c4cc(-c5nccs5)ccc34)C(=O)NC2=O)c2ccccc21 [Example 4a, 3-(1-Methyl-1H-indol-3-yl)-4-(1-methyl-6-thiazol-2-yl-1H-indol-3-yl)pyrrole-2,5-dione]
60 nM | Cn1ccnc1-c1ccc2c(C3=C(c4cn(C)c5ccccc45)C(=O)NC3=O)cn(C)c2c1 [Example 4b, 3-(1-Methyl-1H-indol-3-yl)-4-[1-methyl-6-(1-methyl-1H-imidazol-2-yl)-1H-indol-3-yl]-pyrrole-2,5-dione]
20 nM | Cn1cc(C2=C(c3cn(C)c4cc([N+](=O)[O-])ccc34)C(=O)NC2=O)c2ccc(-c3nccs3)cc21 [Example 4c, 3-(1-Methyl-6-nitro-1H-indol-3-yl)-4-(1-methyl-6-thiazol-2-yl-1H-indol-3-yl)pyrrole-2,5-dione]
20 nM | Cn1cc(C2=C(c3cn(C)c4cc([N+](=O)[O-])ccc34)C(=O)NC2=O)c2ccc(-c3cccs3)cc21 [Example 4d, 3-(1-Methyl-6-nitro-1H-indol-3-yl)-4-(1-methyl-6-thiophen-2-yl-1H-indol-3yl)-pyrrole-2,5-dione]
30 nM | Cn1cc(C2=C(c3cn(C)c4cc([N+](=O)[O-])ccc34)C(=O)NC2=O)c2ccc(-n3ccnc3)cc21 [Example 8a, 3-(6-Imidazol-1-yl-1-methyl-1H-indol-3-yl)-4-(1-methyl-6-nitro-1H-indol-3-yl)-pyrrole-2,5-dione]
250 nM | Cc1nccn1-c1ccc2c(C3=C(c4cn(C)c5cc([N+](=O)[O-])ccc45)C(=O)NC3=O)cn(C)c2c1 [Example 8b, 3-[1-Methyl-6-(2-methyl-imidazol-1-yl)-1H-indol-3-yl]-4-(1-methyl-6-nitro-1H-indol-3-yl)-pyrrole-2,5-dione]
20 nM | Cn1cc(C2=C(c3cn(C)c4cc([N+](=O)[O-])ccc34)C(=O)NC2=O)c2ccc(-n3cccn3)cc21 [Example 8c, 3-(1-Methyl-6-nitro-1H-indol-3-yl)-4-(1-methyl-6-pyrazol-1-yl-1H-indol-3-yl)pyrrole-2,5-dione]
30 nM | Cn1cc(C2=C(c3cn(C)c4cc(-n5cccn5)ccc34)C(=O)NC2=O)c2ccccc21 [Example 8d, 3(1-Methyl-1H-indol-3-yl)-4-(1-methyl-6-pyrazol-1-yl-1H-indol-3-yl)pyrrole-2,5-dione]
25 nM | Cn1cc(C2=C(c3cn(C)c4cc(-n5cccn5)ccc34)C(=O)NC2=O)c2ccc(Br)cc21 [Example 8e, 3-(6-Bromo-1-methyl-1H-indol-3-yl)-4-(1-methyl-6-pyrazol-1-yl-1H-indol-3-yl)pyrrole-2,5-dione]
25 nM | Cn1cc(C2=C(c3cn(C)c4cc(-n5ccnc5)ccc34)C(=O)NC2=O)c2ccc(Br)cc21 [Example 10a, 3-(6-Bromo-1-methyl-1H-indol-3-yl)-4-(6-imidazol-1-yl-1-methyl-1H-indol-3-yl)-pyrrole-2,5-dione]
30 nM | Cn1cc(C2=C(c3cn(C)c4cc(-n5ccnc5)ccc34)C(=O)NC2=O)c2ccc(C#N)cc21 [Example 10b, 3-[4-(6-Imidazol-1-yl-1-methyl-1H-indol-3-yl)-2,5-dioxo-2,5-dihydro-1H-pyrrole-3-yl]-1-methyl-1H-indole-6-carbonitrile]
